Assay results published in patent US20190204338A1, “Methods for the Characterisation of Interaction Sites on Target Proteins” (Phylogica Limited, priority 2012, published 2019).

Tests used:
Type in all cases: cell-based, human
[1] = test system: Sulfiredoxin (Srxn1) promoter; assay: Srxn1-luciferase reporter assay (PMA-dependent activation); conditions: U2oS cells, normalised to Renilla, n=3, p<0.05
Description: From this primary screen, we concentrated on the PYC36-like, AP1-inhibitory Phylomers, and selected 14 initial hits. Of these, 7 (TABLE 2 and FIG. 8) were confirmed to inhibit AP1-luciferase activity in a secondary reporter assay normalised to Renilla luciferase expression (FIG. 2). Briefly, Phylomer DNA of the primary hits was re-prepared from the original clones selected for the mini-library (Endo-Free Maxi-Prep, Qiagen), and 5×10^5 U2oS cells were co-transfected with 800 ng DNA comprising AP1-luciferase or Srxn1-luciferase (Papadia et al., 2008) (Firefly), pRL-TK (Renilla) and Phylomer plasmid. Reporter activity/inhibition was calculated by normalizing Firefly activity to Renilla.
As an additional confirmatory experiment, we asked whether these 6 Phylomers specifically regulated expression of a known AP1 target gene by testing their effect on the Sulfiredoxin (Srxn1) promoter, recently established as an AP1-dependent component of the anti-oxidant response mechanism (Papadia et al., 2008). Of the 6 Phylomers tested, 3 inhibited PMA-dependent activation of this promoter: 6G8, 25C3 and 48E6 (FIG. 3a). Importantly, these Phylomers had no effect upon PMA-induced transcription from a control Srxn1 promoter in which the AP1 response elements had been ablated by mutation (FIG. 3b), confirming that their effect on the Srxn1 promoter is AP1-specific.

[2] = test system: Srxn1 promoter containing mutated AP1 response elements; assay: Control Srxn1 promoter reporter with mutated AP1 response elements; conditions: n=3, p>0.05
Description: From this primary screen, we concentrated on the PYC36-like, AP1-inhibitory Phylomers, and selected 14 initial hits. […] Reporter activity/inhibition was calculated by normalizing Firefly activity to Renilla.

[3] = test system: AP1-luciferase reporter; assay: Primary phenotypic screen: PMA-mediated AP1-driven luciferase reporter in transfected U2oS cells; conditions: U2oS cells co-transfected with Phylomer plasmid, PMA 100 nM, read 24 hours later
Description: The mini-library of 3120 individual transfection-ready plasmids was used in a microtitre plate-based transfection assay system (ie, and array-based format) in the U2oS cell line, and the effects of the Phyomers expressed from this mini-library were assessed upon PMA-mediated AP1-driven luciferase reporter expression. The previously identified Phylomer PYC36 ([…] SEQ ID NO: 5)—found by reverse target-based yeast 2-hybrid screening against c-Jun bait, and known to affect AP1-dependent transcription (Mead et al., 2010 J. Neurochem, 112: 258-270)—was used as positive control.
Briefly, in triplicate plates, 1×10^5 U2oS cells were plated overnight and co-transfected with 100 ng of both AP1-luciferase reporter (Stratagene) and either an individual Phylomer construct from the mini-libary, or positive control (pcDNA3.1/PYC36) or vector control (pcDNA3.1/nV5-DEST-GusB). PMA (100 nM) was used to induce AP1-dependent luciferase expression 6 hours post-transfection, and luciferase activity was measured 24 hours later (SteadlyGlo, Promega).

| PMA-dependent activation of the Srxn1 promoter (Srxn1-luciferase activity) [1] | Substance | PMA-induced transcription from control Srxn1 promoter with AP1 response elements ablated by mutation [2] | AP1-dependent luciferase activity (transcription) [3] |
| --- | --- | --- | --- |
| inhibited | 6G8: AP1-inhibitory Phylomer RAEKCGKLF (SEQ ID NO: 10) (Protein fragment of unknown organism) [Phylomer 6G8] | no effect | – |
| inhibited | 48E6: AP1-inhibitory Phylomer HSDRTADI (SEQ ID NO: 18) (Protein fragment of unknown organism) [Phylomer 48E6] | no effect | – |
| significant inhibition | PYC36: previously identified Phylomer GLQGRRRQGYQSIKP (SEQ ID NO: 5), positive control known to affect AP1-dependent transcription (Protein fragment of unknown organism) [reference compound] | – | inhibited transcription |
